Assay results from ChEMBL document CHEMBL4651402, “Screening of ~5500 FDA-approved drugs and clinical candidates for anti-SARS-CoV-2 activity” (2021).

Tested on: SARS-CoV-2
Assay: microbe, parasite or virus in culture
Conditions: Severe acute respiratory syndrome coronavirus 2, Vero C1008, 48 h

| Compound | IC50 [µM] | IC50 (read-out: pIC50 (converted)) [µM] |
| --- | --- | --- |
| OC(CCCN1CCCCC1)(c1ccccc1)c1ccccc1 [DIPHENIDOL] | > 20 | > 20 |
| O=C(OCCOCCO)c1ccccc1Nc1cccc(C(F)(F)F)c1 [ETOFENAMATE] | > 20 | > 20 |
| CC(C)[N+](C)(CCOC(=O)C1c2ccccc2Oc2ccccc21)C(C)C [PROPANTHELINE] | > 20 | > 20 |
| CC(=O)OC1CC2CCC3C(CCC4(C)C3CC(N3CC[N+](C)(C)CC3)C4OC(C)=O)C2(C)CC1N1CC[N+](C)(C)CC1 (stereo unspecified) | > 20 | > 20 |
| CSCC[C@H](N)C(=O)N[C@@]1(C(=O)O)CS(=O)(=O)[C@H]2[C@H](C(=O)O)[C@H]21 [POMAGLUMETAD METHIONIL ANHYDROUS] | > 20 | > 20 |
| COC(=O)Nc1nc2cc(SC(C)C)ccc2[nH]1 | > 20 | > 20 |
| COP(=O)(c1cc(C)cc(/C=C/C#N)c1)c1c(C(N)=O)[nH]c2ccc(Cl)cc12 (stereo unspecified) | > 20 | > 20 |
| Cc1cn([C@H]2C[C@H](O)[C@@H](CO)O2)c(=O)[nH]c1=O [DOXRIBTIMINE] | > 20 | > 20 |
| O[C@H](CNC[C@@H](O)[C@H]1CCc2cc(F)ccc2O1)[C@@H]1CCc2cc(F)ccc2O1 | > 20 | > 20 |
| CCc1[nH]c(=O)[nH]c1C(=O)c1ccncc1 [PIROXIMONE] | > 20 | > 20 |
| CCOc1ccc(Cc2nccc3cc(OCC)c(OCC)cc23)cc1OCC [ETHAVERINE] | > 20 | > 20 |
| C[C@H](CCC(=O)NCCS(=O)(=O)O)[C@H]1CC[C@H]2[C@@H]3[C@@H](O)CC4C[C@H](O)CC[C@]4(C)[C@H]3CC[C@]12C (stereo partly specified) | > 20 | > 20 |
| C[C@@H]1NC(=O)C2(CCCC2)NC1=O | > 20 | > 20 |
| CC(=O)O[C@H]1C[C@@H]2CC[C@@H]3[C@H](CC[C@@]4(C)[C@H]3C[C@H]([N+]3(C)CCCCC3)[C@@H]4OC(C)=O)[C@@]2(C)C[C@@H]1[N+]1(C)CCCCC1 [PANCURONIUM] | > 20 | > 20 |
| CC(=O)c1ccc2c(c1)[C@@H]1C=CC[C@@H]1[C@H](c1cc3c(cc1Br)OCO3)N2 | > 20 | > 20 |
| CC(=O)Nc1ccc(OC(C)=O)cc1 [DIACETAMATE] | > 20 | > 20 |
| CC(C(=O)O)c1ccc(C(=O)c2cccs2)cc1 (stereo unspecified) [SUPROFEN] | > 20 | > 20 |
| CCOC(=O)C(CCc1ccccc1)NC(C)C(=O)N(CC(=O)O)C1Cc2ccccc2C1 (stereo unspecified) | > 20 | > 20 |
| C[C@@H]1CN(Cc2ccc(F)cc2)[C@@H](C)CN1C(=O)c1cc2c(C(=O)C(=O)N(C)C)cn(C)c2cc1Cl [TALMAPIMOD] | > 20 | > 20 |
| COC(=O)C1=C(C)NC(C)=C(C(=O)OCC(C)C)C1c1ccccc1[N+](=O)[O-] (stereo unspecified) [NISOLDIPINE] | > 20 | > 20 |
| COc1ccc(C(=O)OC2C[C@H]3CC[C@H](C2)N3C)cc1OC (stereo partly specified) | > 20 | > 20 |
| CN1C(C)(C)CCCC1(C)C [PEMPIDINE] | > 20 | > 20 |
| O=C1c2ccccc2S(=O)(=O)N1CCCCN1CCN(c2ncccn2)CC1 [IPSAPIRONE] | > 20 | > 20 |
| OC[C@H]1O[C@H](O[C@H]2[C@H](O)[C@@H](O)[C@H](O)O[C@@H]2CO)[C@H](O)[C@@H](O)[C@@H]1O [MALTOSE] | > 20 | > 20 |
| CC(N/C(=N\C#N)Nc1ccncc1)C(C)(C)C (stereo unspecified) [PINACIDIL ANHYDROUS] | > 20 | > 20 |

| Compound | IC50 [µM] | IC50 (read-out: pIC50 (converted)) [µM] |
| --- | --- | --- |
| COC(=O)c1ccc(O)cc1 [METHYLPARABEN] | > 20 | > 20 |
| CN(C)CCCOc1nn(Cc2ccccc2)c2ccccc12 [BENZYDAMINE] | > 20 | > 20 |
| CCN(CC)CCN1C(=O)CN=C(c2ccccc2F)c2cc(Cl)ccc21 [FLURAZEPAM] | > 20 | > 20 |
| COc1c2ccoc2nc2c(OC)c(OC[C@@H](O)C(C)(C)O)ccc12 | > 20 | > 20 |
| CCCCCCOc1ccccc1C(N)=O [EXALAMIDE] | > 20 | > 20 |
| COc1cc2c(cc1OC)C(=O)OC2 [METAMECONINE] | > 20 | > 20 |
| COc1ccc(-c2cc(=O)c3c(O)cc(O)cc3o2)cc1O [DIOSMETIN] | > 20 | > 20 |
| c1ccc2cc(COC3CCNCC3)ccc2c1 [LITOXETINE] | > 20 | > 20 |
| CC[C@H]1C(C)=NN=C(c2ccc(OC)c(OC)c2)c2cc(OC)c(OC)cc21 [DEXTOFISOPAM] | > 20 | > 20 |
| COc1cc2nc(N3CCN(C(=O)c4ccco4)CC3)nc(N)c2cc1OC [PRAZOSIN] | > 20 | > 20 |
| CCCCCCCCCCCCOS(=O)(=O)O | > 20 | > 20 |
| CC(C(=O)O)C1CCC2C3CC=C4C[C@@H](O)CC[C@]4(C)C3CC[C@]12C (stereo partly specified) | > 20 | > 20 |
| CC(=O)OC1CCC2C3CCc4cc(O)ccc4C3CCC12C (stereo unspecified) | > 20 | > 20 |
| O=C1C[C@@H]2OCC=C3CN4CC[C@]56c7ccccc7N1[C@H]5[C@H]2[C@H]3C[C@H]46 [STRYCHNINE] | > 20 | > 20 |
| CC(C)(C)C(=O)C(Oc1ccc(Cl)cc1)n1cncn1 (stereo unspecified) [TRIADIMEFON] | > 20 | > 20 |
| CN1CCN(C2=Nc3cscc3/C(=C/C#N)c3cscc32)CC1 [TENILAPINE] | > 20 | > 20 |
| CCCC(=O)OC1(C(=O)CO)CCC2C3CCC4=CC(=O)CCC4(C)C3C(O)CC21C (stereo unspecified) | > 20 | > 20 |
| CN1CCN(CC(=O)N2c3ccccc3C(=O)Nc3cccnc32)CC1 [PIRENZEPINE] | > 20 | > 20 |
| CC12C=CC(=O)C=C1CCC1C2CCC2(C)C1CC[C@]2(C)O (stereo partly specified) | > 20 | > 20 |
| C[C@@H](c1ncncc1F)[C@](O)(Cn1cncn1)c1ccc(F)cc1F [VORICONAZOLE] | > 20 | > 20 |
| N/N=c1\[nH][nH]/c(=N\N)c2ccccc12 [DIHYDRALAZINE] | > 20 | > 20 |
| CC(C(=O)O)c1ccc2oc(-c3ccc(F)cc3)nc2c1 (stereo unspecified) | > 20 | > 20 |
| COCCCOc1ccnc(C[S+]([O-])c2nc3ccccc3[nH]2)c1C (stereo unspecified) [RABEPRAZOLE] | > 20 | > 20 |
| O=C1c2ccccc2C(=O)C1c1ccc(Cl)cc1 [CLORINDIONE] | > 20 | > 20 |
| N#CCC1CCN(c2nc(Nc3ccc(N4CCC(O)CC4)cc3)c3c(=O)[nH]ncc3n2)CC1 [GUSACITINIB] | > 20 | > 20 |

| Compound | IC50 [µM] | IC50 (read-out: pIC50 (converted)) [µM] |
| --- | --- | --- |
| Oc1c(Cc2ccccc2)ccc2ccccc12 | > 20 | > 20 |
| COc1ccc(-c2nc3cc(C4=NNC(=O)C[C@H]4C)ccc3[nH]2)cc1 | > 20 | > 20 |
| C=CCNc1nc(NCC=C)nc(N2CCN(C(c3ccc(F)cc3)c3ccc(F)cc3)CC2)n1 [ALMITRINE] | > 20 | > 20 |
| O=C(NCCc1ccc(O)c(O)c1)C12CC3CC(CC(C3)C1)C2 [DOPAMANTINE] | > 20 | > 20 |
| COCC(O)Cn1ccnc1[N+](=O)[O-] (stereo unspecified) [MISONIDAZOLE] | > 20 | > 20 |
| CC(Cc1cccc(C(F)(F)F)c1)NCCOC(=O)c1ccccc1 (stereo unspecified) [BENFLUOREX] | > 20 | > 20 |
| O=C(O)[C@H](O)[C@@H](O)[C@H](O[C@@H]1O[C@H](CO)[C@H](O)[C@H](O)[C@H]1O)[C@H](O)CO | > 20 | > 20 |
| Cc1[nH]c(=O)c(C#N)cc1-c1ccncc1 [MILRINONE] | > 20 | > 20 |
| COc1ccc2c3c1OC1C(OC(C)=O)=CCC4C(C2)N(C)CCC314 (stereo unspecified) | > 20 | > 20 |
| C[C@@H](O[C@H]1OCCN(Cc2n[nH]c(=O)[nH]2)[C@H]1c1ccc(F)cc1)c1cc(C(F)(F)F)cc(C(F)(F)F)c1 [APREPITANT] | > 20 | > 20 |
| N[C@@H](Cc1cc(Br)c(O)c(Br)c1)C(=O)O [DIBROMOTYROSINE] | > 20 | > 20 |
| COc1ccccc1[C@H](Cn1c(=O)n(C(C)(C)C(=O)O)c(=O)c2c(C)c(-c3ncco3)sc21)OC1CCOCC1 [FIRSOCOSTAT] | > 20 | > 20 |
| CC(C)(C)CC(C)(C)c1ccc(O)c(Cc2ccc(Cl)cc2Cl)c1 [CLOFOCTOL] | > 20 | > 20 |
| CC[C@H]1OC(=O)[C@H](C)C(=O)[C@H](C)[C@@H](O[C@@H]2O[C@H](C)C[C@H](N(C)C)[C@H]2O)[C@](C)(OC)C[C@@H](C)C(=O)[C@H](C)[C@@H]2N(CCCCn3cnc(-c4cccnc4)c3)C(=O)O[C@@]21C | > 20 | > 20 |
| COc1ccc(-c2ccc3c(N4CCOC[C@@H]4C)nc(N4CCOC[C@@H]4C)nc3n2)cc1CO [AZD-8055] | > 20 | > 20 |
| C[C@@H](Nc1ncnc2[nH]c(-c3ccc(O)cc3)cc12)c1ccccc1 [PKI-166] | > 20 | > 20 |
| C=CCc1ccccc1OC[C@@H](O)CNC(C)C | > 20 | > 20 |
| CC1(C)[C@H](C(=O)O)N2C(=O)C[C@H]2S1(=O)=O [SULBACTAM] | > 20 | > 20 |
| O=C(Cn1c(=O)sc2ccc(Cl)cc21)N1CCN(CCO)CC1 [TIARAMIDE] | > 20 | > 20 |
| CC(C)N1CCN(c2ccc(N3CCN(c4ccc(OC[C@@H]5OC[C@@](Cn6cncn6)(c6ccc(F)cc6F)O5)cc4)CC3)cc2)C1=O | > 20 | > 20 |
| N[C@H]1C[C@@H]1c1ccccc1 [(+)-TRANYLCYPROMINE] | > 20 | > 20 |
| NC(=O)NC(CCC(=O)O)C(=O)O (stereo unspecified) | > 20 | > 20 |
| CC(=O)O[C@@H]1CC2(C)C(C(C)=O)CCC2C2CCC3=CC(=O)CCC3(C)C21 (stereo partly specified) | > 20 | > 20 |
